The test system of one series is COL1A1 gene. The series can be described thus: RNA-seq gene expression after compound treatment, COL1A1. In kind it is cell-based, human. As to conditions: FIG. 11B; gene implicated in liver fibrosis. The source says:
FIG. 11B are ChIP-seq results for an insulated neighborhood and RNA-seq results showing modulation of the COL1A1 gene implicated in liver fibrosis by BIO inhibitor (MT-209), a Wnt pathway agonist.
(§1) In certain embodiments, hepatocytes are used to map a healthy cell population. The liver is a source of many known genetic disease and provides homogeneous primary tissue with high availability. Additionally, most toxicology is done in the liver, which provides drug toxicity insights. In some embodiments, different stimuli, such as those described herein, are contacted with a cell to induce various GSC responses in the hepatocytes. For example, small molecules may be administered to identify liver disease genes whose expression is modulated by the small molecules. These responses provide an understanding of GSCs in liver cells: genomic positions, protein composition, and genome architecture. Alternatively, blood or muscle tissue may be mapped as a healthy population, as a disease model, or as primary disease cells. About 20 million cells are generally needed for accurate ChIP (chromatin immunoprecipitation) analysis. Therefore, in some embodiments, erythroid cells may be used to develop a conditionally immortalized cell system to produce a sufficient biomass for ChIP analysis of a cell with a disease phenotype.

Series [1] concerns primary human hepatocytes. Put plainly: RNA-seq of primary human hepatocytes treated with 39 small molecules (pilot and validation).
For the next series, the system named is SLC37A4 gene. Put plainly: RNA-seq gene expression after compound treatment, insulated neighborhood containing SLC37A4. In kind it is cell-based, human. The note with it: FIG. 8; gene implicated in glycogen storage disease 1b.
For a further series, the system named is PCSK9 gene. The series can be described thus: RNA-seq gene expression after compound treatment, PCSK9. In kind it is cell-based, human. The note with it: FIG. 11C and FIG. 13; gene implicated in hypercholesterolemia.
Description: as §1

A further series has as its system FKBP5. The series can be described thus: RNA-seq gene expression after compound treatment, insulated neighborhood including FKBP5. In kind it is cell-based, human. The note with it: FIG. 11A; gene implicated in immunosuppression.
Description: as §1

The test system of series [2] is normal cord blood erythroblast cells. The series can be described thus: qRT-PCR after constitutive (pLKO) shRNA knockdown in normal CD34+ cells. Type of series: cell-based, human. The note with it: for RQ, ALAS2: relative quantification of ALAS2 expression vs control sh_NT; for RQ, BCLXL: relative quantification of BCLXL expression vs control sh_NT; for RQ, MYC: relative quantification of MYC expression vs control sh_NT; for RQ, P53: relative quantification of P53 expression vs control shNT; for RQ, RPL11: relative quantification of RPL11 expression vs control shNT; for RQ, p21: relative quantification of p21 expression vs control sh_NT; for RQ, p53: relative quantification of p53 expression vs control sh_NT; for increase in expression of p21: pLKO constitutive knockdown, compared to the level observed for the p53 knockdowns, qRT-PCR. Here is the method: Conditionally immortalized cord blood CD34+ cells were transduced with the shRNA lentiviruses using the retronectin-transduction protocol (Clontech). Puromycin selection was performed 24-48 hours post-transduction. Cells were counted to monitor cell viability. After 12 days, which allowed for a large biomass, knockdown efficiency was analyzed. qRT-PCR was used to identify changes in mRNA, and Western blot was used to determine levels of protein depletion.
(§2) For RNA extraction, 1×10^6 cells were harvested in 500 μL of TRIZOL reagent (Thermo Scientific), and incubated for 5 minutes at room temperature. Then, 100 μL of chloroform was added to the cells, and the mixture was vortexed and then centrifuged at 12,000× gravity for 15 minutes. The aqueous phase was transferred to fresh tubes and one volume of 70% ethanol was added. The TRIZOL Plus RNA purification Kit (Thermo Scientific) was used for the remaining extraction protocol according to the manufacturer's instructions. For the conversion of RNA to cDNA the High Capacity cDNA RT kit (Thermo Scientific) was used according to the manufacturer's instructions. The cDNA was analyzed with qRT-PCR to determine the fold change of knockdown cells using Taqman Fast PCR mix and Applied Biosystems probes (Thermo Scientific).
shRNAs targeting RPS19, p53, or RPL11 were delivered to normal cord blood erythroblast cells using either the pLKO (constitutive) and pTRIPZ (inducible) plasmids described in Example 1. The mRNA expression of the p53 pathway proteins; progenitor factor GATA2; and differentiation factors HBB and GATA1 were measured by qRT-PCR. Cells not transduced with a shRNA as well as cells transduced with a non-targeting shRNA served as controls.
HBB is associated with differentiation of CD34^+ cells, and p21 is associated with the p53 pathway. […]
To determine the effect of p53 knockdown on expression of other genes, cells were also transduced with pLKO containing p53_sh4 or p53_sh5. To determine the effect of RPS19 knockdown on expression of other genes, cells were transduced with pLKO containing RPS19_sh1, RPS19_sh2, RPS19_sh3, RPS19_sh4, RPS19_sh5, and sh_NT as a control. The relative quantifications of expression of differentiation associated genes ALAS2 and HBB, immortalization factors BCLXL and MYC, and targets of interest p53 and RPS19 are shown in Table 79.
A general note: Real-time PCR tracks product formation cycle by cycle.

In series [3] the test system is CB-CI-IRES-CD34+ cell line. Put plainly: qRT-PCR and knockdown efficiency of shRNAs in conditionally immortalized cord blood CD34+ cells. In kind it is cell-based, human. The note with it: qRT-PCR; CB-CI-IRES-CD34+ cells transduced with pTRIPZ shRNA; B-ACTIN control; relative to pTRIPZ NT. Here is the method: as §2
qRT-PCR was used to analyze expression of p53 pathway-associated genes p21, RPS19, and RPL11; differentiation marker HBB; and internal control B-ACTIN in the cord blood conditionally immortalized CD34+ (CB-CI-IRES-CD34+) cell line transduced with the pTRIPZ plasmid containing NT (Model 9), RPL11_sh1 (Model 4) and RPL11_sh2 (Model 5) for a RPL11 knockdown, and RPS19_sh1 (Model 6) and RPS19_sh2 (Model 7) for a RPS19 knockdown.
qRT-PCR was used to determine the levels of expression of ALAS2, GAPDH, GATA1, GATA2, HBB, and p53 in differentiated CB-CI-IRES cells using GAPDH as an internal control as shown in Table 86.
Gene expression was compared for CB-CI-IRES cells during expansion and differentiation. […] GAPDH was used as an internal control.
The efficiency of different shRNAs were tested in a conditionally immortalized cord blood erythroblast cell system to mimic DBA. The pTRIPZ was used to transduce these cells with sh1 (dox inducible shRPS19) or sh2 (dox inducible shRPS19), and pLKO was used to transduce a group of cells with sh5 (shRPS19). qRT-PCR was used to determine the level of gene expression in RPS19 mRNA knockdown in each group of cells. The percent of knockdown is shown in Table 90 after 1 week (T1), 2 weeks (T2), and 3 weeks (T3) for each shRNA.

The next series relates to hepatocytes. The note with it: {}.
Another series deals with TF1 RPS19 KD cells. The series can be described thus: Dose titration of compounds into RPS19 KD TF1 cells (p53 by qRT-PCR, viability ATP assay). In kind it is cell-based. As to conditions: after transduction with constitutive pLKO shRNA plasmid. How it is done:
The concentration of the compounds needed to observe a rescued DBA phenotype in TF1 RPS19 KD cells was determined via qRT-PCR analysis of p53 levels. […] Nine different cell lines were used. […] Cells were collected in separate tubes in a concentration of 1000 cells/μL to reach a concentration of 50,000 cells/50 μL per well. Cell were centrifuged at 1,200 rpm for 5 minutes. Then, the media was aspirated and cells were resuspended in RPMI+GCMSF medium.
For the preparation of Dose 1 (final concentration on plate 25 μM), a 50 μM solution was made by adding 300 μL of […] to 300 μL of RPM1+GCMSF+2% DMSO (final 1% DMSO). The 50 μM solution was further diluted to 2× when added with the cells into a well, resulting in a final concentration of 25 μM. […] DMSO 1% was used for each cell type as DMSO control.
A 96-well plate was used for analysis of each dose on each cell type. Fifty μL of each cell type and 50 μL of a diluted compound are added to the corresponding wells for a total of 100 μL RPMI+GCMSF+1% DMSO, with 50,000 cells/well. The following day, 50 μL for RNA (25,000 cells) and 50 μL for viability ATP assay (25,000 cells) were collected from each well.
Dose titration was performed as described in Example 1. […] Phenotype rescue was determined by measuring p53 levels by qRT-PCR analysis. […]

[4] abbreviates: relative quantification of HBB expression vs control shNT, pLKO constitutive shRNA, GAPDH internal control, Table 78.
The mark [5] stands for this setting: relative quantification of HBB expression vs control sh_NT, pLKO shRNA, B-ACTIN, Table 79.
Setting [6] is: pLKO constitutive shRNA, GAPDH internal control, Table 78.
Where [7] appears, read: relative quantification of RPS19 expression vs control shNT, pLKO constitutive shRNA, GAPDH internal control, Table 78.
[8] abbreviates: relative quantification of RPS19 expression vs control sh_NT, pLKO shRNA, B-ACTIN, Table 79.

The source of these data is patent publication US20210254056A1, “IDENTIFICATION AND TARGETED MODULATION OF GENE SIGNALING NETWORKS” (CAMP4 THERAPEUTICS CORPORATION, priority 2017, published 2021).

“Also recorded” adds a separate entry of the source.

In the case of `O=C1Nc2cc(Br)ccc2/C1=C1/Nc2ccccc2/C1=N\O` [BIO inhibitor], the “expression of the COL1A1 gene (RNA-seq)” value in the series on COL1A1 gene is reported as “modulation”.

As to `C[C@]12C=CC(=O)C=C1CC[C@@H]1[C@@H]2C(=O)C[C@@]2(C)[C@H]1CC[C@]2(O)C(=O)CO` [prednisone], in series [1] (RNA-seq, p-value≤0.05, primary human hepatocytes, the modulated genes are listed in the block), the “significant modulation of gene expression” value is “significantly (p-value≤0.05) modulate”. Besides, the “gene upregulated by the compound” value in [1] (RNA-seq, treated cells compared to vehicle control, gene named in the value) is “upregulate the SLC37A4 gene; also recorded: SLC37A4 was significantly upregulated; also recorded: upregulate FKPP5”. Also, the “Number (#) of genes having significantly changed expression” value in series [1] (pilot RNA-seq study of Example 2, significance: FPKM≥0.5, log 2(fold change)≥1, q-value ≤0.05) was determined as 247. The “expression of the SLC37A4 gene (RNA-seq)” value in the series on SLC37A4 gene is recorded as “upregulation”. Moreover, the “expression of the PCSK9 gene (RNA-seq)” value in the series on PCSK9 gene is “modulation”. In addition, the “expression of FKBP5 (RNA-seq)” value in the series with FKBP5 is “upregulates”.

On to “RPS19_sh1 (CTACGATGAGAACTGGTTCT; expressed or natural sequence; listed as Homo sapiens)”, for which, in [2] (pLKO shRNA, B-ACTIN, Table 79), the “RQ, ALAS2” value amounted to 0.02; the “RQ, BCLXL” value turned out to be 0.34; the “RQ, MYC” value is 0.52; the “RQ, p21” value is given as 0.53. Besides, in [2] (pLKO shRNA, B-ACTIN, Table 79), the “RQ, p53” value was found to be 0.65. Besides, the “RQ, HBB” value in series [2] (setting [4]) worked out at 0.04. Besides, in series [2] (setting [5]), the “RQ, HBB” value was determined as 0.00. Also, in [2] (setting [6]), the “RQ, P53” value is recorded as 1.34 and the “RQ, RPL11” value was determined as 0.74. Also, the “RQ, RPS19” value in [2] (setting [7]) was found to be 0.59. In addition, the “RQ, RPS19” value in [2] (setting [8]) stood at 0.47. In series [3], the “RQ of HBB” value was 2.28, the “RQ of RPL11” value was 1.52 and the “RQ of p21” value is 1.35.

With `Cn1cncc1[C@@](N)(c1ccc(Cl)cc1)c1ccc2c(c1)c(-c1cccc(Cl)c1)cc(=O)n2C` [Tipifarnib], the “# of genes having significantly altered expression” value with hepatocytes came out at 34.

In the case of “RPS19_sh5: shRNA targeting RPS19 in the constitutive pLKO plasmid, SEQ ID NO 32576 (CGGCGTCATGCCCAGCCACTT; listed as Homo sapiens)”, the Cell density in the series with TF1 RPS19 KD cells was 962,000 cells/mll. Moreover, the “increase in expression of p21” value in [2] worked out at 5.8 fold. Moreover, in series [2] (pLKO shRNA, B-ACTIN, Table 79), the “RQ, ALAS2” value amounted to 1.51; the “RQ, BCLXL” value is recorded as 0.99; the “RQ, MYC” value came to 1.43; the “RQ, p21” value amounted to 5.75. Besides, the “RQ, p53” value in series [2] (pLKO shRNA, B-ACTIN, Table 79) stood at 0.74. Besides, the “RQ, HBB” value in series [2] (setting [4]) is listed as 0.75. Besides, in series [2] (setting [5]), the “RQ, HBB” value turned out to be 0.15. In series [2] (setting [6]), the “RQ, P53” value was found to be 1.41 and the “RQ, RPL11” value is listed as 1.09. The “RQ, RPS19” value in series [2] (setting [7]) was 0.65. In [2] (setting [8]), the “RQ, RPS19” value amounted to 0.15.

Regarding “RPS19_sh4: shRNA targeting RPS19 in the constitutive pLKO plasmid, SEQ ID NO 32575 (GCTTGCTCCCTACGATGAGAA; listed as Homo sapiens)”, the Cell density in the series with TF1 RPS19 KD cells is recorded as 124,000 cells/mll. Besides, the “increase in expression of p21” value in [2] came to 12.8 fold. Also, in series [2] (pLKO shRNA, B-ACTIN, Table 79), the “RQ, ALAS2” value was 0.16; the “RQ, BCLXL” value is recorded as 0.87; the “RQ, MYC” value came to 1.03; the “RQ, p21” value stood at 12.78. Moreover, the “RQ, p53” value in [2] (pLKO shRNA, B-ACTIN, Table 79) is given as 1.74. The “RQ, HBB” value in series [2] (setting [4]) came out at 0.42. The “RQ, HBB” value in series [2] (setting [5]) is 0.03. Also, in series [2] (setting [6]), the “RQ, P53” value is reported as 1.24 and the “RQ, RPL11” value is given as 1.02. Moreover, the “RQ, RPS19” value in [2] (setting [7]) came out at 1.54. Besides, in [2] (setting [8]), the “RQ, RPS19” value was 0.43.
